# Tests used:
# Assay type in all cases: biochemical
# PI3K δ = PI3K δ (Homo sapiens, UniProt O00329); test: In vitro IC50, PI3K δ; parameters: purchased Upstate
# From the text: (§1) An exemplary system is PI 3-Kinase (human) HTRF™ Assay from Upstate.
# PI3K γ = target: T1, PI3K γ (Homo sapiens, UniProt P48736); test: In vitro IC50, PI3K γ
# T1 construct: purchased Sigma
# From the text: as §1
# PI3K β = PI3K β (Homo sapiens, UniProt P42338); test: In vitro IC50, PI3K β
# From the text: as §1
# PI3K α = target: T2, PI3K α (Homo sapiens, UniProt P42336); test: In vitro IC50, PI3K α
# T2 construct: purchased Upstate
# From the text: as §1
# PI3K β, sequence (P42338 whole entry): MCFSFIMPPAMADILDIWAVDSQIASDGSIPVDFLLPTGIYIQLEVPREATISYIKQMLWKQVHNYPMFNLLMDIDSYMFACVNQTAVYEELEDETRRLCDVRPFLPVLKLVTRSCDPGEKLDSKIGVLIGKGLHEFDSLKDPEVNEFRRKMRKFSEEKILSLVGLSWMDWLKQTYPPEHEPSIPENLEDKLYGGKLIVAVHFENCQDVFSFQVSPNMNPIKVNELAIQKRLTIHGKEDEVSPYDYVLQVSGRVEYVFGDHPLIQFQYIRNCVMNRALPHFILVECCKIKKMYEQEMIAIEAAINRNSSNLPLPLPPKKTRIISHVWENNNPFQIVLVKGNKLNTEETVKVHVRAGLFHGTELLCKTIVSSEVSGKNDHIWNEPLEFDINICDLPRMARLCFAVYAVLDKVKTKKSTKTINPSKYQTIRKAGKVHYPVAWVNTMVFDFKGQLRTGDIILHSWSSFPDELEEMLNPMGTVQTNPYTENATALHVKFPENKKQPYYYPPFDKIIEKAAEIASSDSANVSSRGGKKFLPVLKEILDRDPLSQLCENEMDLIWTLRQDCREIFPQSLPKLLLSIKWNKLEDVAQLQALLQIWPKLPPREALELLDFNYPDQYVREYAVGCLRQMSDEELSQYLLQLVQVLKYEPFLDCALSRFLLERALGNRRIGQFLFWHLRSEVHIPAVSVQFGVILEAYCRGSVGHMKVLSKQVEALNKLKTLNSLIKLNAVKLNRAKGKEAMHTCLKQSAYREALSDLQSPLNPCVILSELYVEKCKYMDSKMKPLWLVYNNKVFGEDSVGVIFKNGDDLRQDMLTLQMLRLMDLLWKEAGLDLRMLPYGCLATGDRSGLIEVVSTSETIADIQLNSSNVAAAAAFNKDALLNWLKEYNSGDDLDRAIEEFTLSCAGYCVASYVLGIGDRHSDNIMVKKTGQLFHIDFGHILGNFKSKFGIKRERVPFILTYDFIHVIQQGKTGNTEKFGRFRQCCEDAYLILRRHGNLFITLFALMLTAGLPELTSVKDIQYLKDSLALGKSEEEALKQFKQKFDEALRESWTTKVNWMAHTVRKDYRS
# T1 sequence (P48736 whole entry): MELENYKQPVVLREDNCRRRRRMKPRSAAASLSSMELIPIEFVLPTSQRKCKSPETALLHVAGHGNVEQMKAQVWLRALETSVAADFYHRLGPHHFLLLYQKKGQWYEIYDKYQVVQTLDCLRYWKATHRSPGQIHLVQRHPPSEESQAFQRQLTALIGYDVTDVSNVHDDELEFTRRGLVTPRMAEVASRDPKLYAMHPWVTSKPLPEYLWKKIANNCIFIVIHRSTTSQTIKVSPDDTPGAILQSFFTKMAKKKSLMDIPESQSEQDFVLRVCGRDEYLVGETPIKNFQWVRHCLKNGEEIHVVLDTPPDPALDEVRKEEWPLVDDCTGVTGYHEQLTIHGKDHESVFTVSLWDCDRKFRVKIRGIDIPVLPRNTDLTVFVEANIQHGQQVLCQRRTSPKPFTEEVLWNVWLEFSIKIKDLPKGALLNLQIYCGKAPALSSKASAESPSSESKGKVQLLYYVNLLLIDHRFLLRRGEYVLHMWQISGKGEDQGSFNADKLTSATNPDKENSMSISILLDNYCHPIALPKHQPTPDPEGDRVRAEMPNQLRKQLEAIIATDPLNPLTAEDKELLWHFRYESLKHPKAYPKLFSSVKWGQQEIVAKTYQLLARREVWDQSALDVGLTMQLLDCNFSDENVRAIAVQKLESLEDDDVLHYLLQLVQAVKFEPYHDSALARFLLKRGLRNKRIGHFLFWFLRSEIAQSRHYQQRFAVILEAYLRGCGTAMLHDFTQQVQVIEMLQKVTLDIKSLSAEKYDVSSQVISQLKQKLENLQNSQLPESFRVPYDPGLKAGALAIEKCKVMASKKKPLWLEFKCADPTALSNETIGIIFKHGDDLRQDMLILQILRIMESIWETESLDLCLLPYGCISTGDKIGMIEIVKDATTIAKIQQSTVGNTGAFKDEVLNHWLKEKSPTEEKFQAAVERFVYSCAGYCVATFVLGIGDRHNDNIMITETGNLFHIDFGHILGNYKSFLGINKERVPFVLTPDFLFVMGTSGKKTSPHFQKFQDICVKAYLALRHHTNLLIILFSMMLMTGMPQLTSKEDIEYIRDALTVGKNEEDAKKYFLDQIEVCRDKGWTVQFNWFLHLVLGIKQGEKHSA
# PI3K δ, sequence (O00329 whole entry): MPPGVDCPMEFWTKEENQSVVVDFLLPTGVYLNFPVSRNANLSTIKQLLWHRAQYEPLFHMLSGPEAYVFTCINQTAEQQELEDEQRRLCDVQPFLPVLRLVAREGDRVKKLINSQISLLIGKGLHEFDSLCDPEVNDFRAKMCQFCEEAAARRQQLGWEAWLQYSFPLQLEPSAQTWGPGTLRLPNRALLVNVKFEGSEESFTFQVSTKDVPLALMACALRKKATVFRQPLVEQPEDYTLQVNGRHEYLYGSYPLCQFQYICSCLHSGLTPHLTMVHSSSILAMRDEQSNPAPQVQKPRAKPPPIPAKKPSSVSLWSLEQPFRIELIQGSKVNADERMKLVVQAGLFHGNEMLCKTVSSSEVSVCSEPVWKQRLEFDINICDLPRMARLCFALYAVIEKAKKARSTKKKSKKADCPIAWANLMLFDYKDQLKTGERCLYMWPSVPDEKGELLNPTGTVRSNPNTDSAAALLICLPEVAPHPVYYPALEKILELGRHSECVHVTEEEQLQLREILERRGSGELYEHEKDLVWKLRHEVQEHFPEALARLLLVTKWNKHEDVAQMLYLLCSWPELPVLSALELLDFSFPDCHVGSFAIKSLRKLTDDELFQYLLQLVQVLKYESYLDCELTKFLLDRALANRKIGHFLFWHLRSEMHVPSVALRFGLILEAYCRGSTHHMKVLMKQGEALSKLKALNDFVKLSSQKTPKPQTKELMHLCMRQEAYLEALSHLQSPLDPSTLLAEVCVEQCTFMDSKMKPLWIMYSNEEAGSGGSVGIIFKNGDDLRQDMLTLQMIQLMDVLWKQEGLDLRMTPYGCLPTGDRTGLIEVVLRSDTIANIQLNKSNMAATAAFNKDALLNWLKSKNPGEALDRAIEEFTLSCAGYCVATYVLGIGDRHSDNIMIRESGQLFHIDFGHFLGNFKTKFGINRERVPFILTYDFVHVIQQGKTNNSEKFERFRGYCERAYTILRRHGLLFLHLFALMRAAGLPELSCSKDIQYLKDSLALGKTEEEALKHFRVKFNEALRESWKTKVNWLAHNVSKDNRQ
# PI3K δ, sequence (P27986 whole entry partner): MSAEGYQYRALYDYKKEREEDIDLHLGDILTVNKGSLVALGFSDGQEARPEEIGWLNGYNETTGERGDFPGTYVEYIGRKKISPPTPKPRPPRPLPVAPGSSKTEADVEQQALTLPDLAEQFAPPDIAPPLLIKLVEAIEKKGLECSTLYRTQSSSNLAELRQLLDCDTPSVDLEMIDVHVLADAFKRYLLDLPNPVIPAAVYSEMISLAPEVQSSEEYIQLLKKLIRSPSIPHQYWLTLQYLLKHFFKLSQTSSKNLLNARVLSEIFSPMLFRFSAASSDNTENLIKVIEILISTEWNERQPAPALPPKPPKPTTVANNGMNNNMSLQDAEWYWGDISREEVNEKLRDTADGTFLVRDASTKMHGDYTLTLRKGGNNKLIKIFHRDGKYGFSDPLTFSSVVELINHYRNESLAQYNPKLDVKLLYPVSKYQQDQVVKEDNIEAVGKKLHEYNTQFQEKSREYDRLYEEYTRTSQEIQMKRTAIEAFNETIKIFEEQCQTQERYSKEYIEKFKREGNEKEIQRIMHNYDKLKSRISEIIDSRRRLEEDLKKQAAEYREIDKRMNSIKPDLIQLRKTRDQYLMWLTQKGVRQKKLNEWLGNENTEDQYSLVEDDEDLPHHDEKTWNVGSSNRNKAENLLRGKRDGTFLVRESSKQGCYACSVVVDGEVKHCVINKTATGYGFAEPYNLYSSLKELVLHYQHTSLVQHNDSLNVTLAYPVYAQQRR
# T2 sequence (P42336 whole entry): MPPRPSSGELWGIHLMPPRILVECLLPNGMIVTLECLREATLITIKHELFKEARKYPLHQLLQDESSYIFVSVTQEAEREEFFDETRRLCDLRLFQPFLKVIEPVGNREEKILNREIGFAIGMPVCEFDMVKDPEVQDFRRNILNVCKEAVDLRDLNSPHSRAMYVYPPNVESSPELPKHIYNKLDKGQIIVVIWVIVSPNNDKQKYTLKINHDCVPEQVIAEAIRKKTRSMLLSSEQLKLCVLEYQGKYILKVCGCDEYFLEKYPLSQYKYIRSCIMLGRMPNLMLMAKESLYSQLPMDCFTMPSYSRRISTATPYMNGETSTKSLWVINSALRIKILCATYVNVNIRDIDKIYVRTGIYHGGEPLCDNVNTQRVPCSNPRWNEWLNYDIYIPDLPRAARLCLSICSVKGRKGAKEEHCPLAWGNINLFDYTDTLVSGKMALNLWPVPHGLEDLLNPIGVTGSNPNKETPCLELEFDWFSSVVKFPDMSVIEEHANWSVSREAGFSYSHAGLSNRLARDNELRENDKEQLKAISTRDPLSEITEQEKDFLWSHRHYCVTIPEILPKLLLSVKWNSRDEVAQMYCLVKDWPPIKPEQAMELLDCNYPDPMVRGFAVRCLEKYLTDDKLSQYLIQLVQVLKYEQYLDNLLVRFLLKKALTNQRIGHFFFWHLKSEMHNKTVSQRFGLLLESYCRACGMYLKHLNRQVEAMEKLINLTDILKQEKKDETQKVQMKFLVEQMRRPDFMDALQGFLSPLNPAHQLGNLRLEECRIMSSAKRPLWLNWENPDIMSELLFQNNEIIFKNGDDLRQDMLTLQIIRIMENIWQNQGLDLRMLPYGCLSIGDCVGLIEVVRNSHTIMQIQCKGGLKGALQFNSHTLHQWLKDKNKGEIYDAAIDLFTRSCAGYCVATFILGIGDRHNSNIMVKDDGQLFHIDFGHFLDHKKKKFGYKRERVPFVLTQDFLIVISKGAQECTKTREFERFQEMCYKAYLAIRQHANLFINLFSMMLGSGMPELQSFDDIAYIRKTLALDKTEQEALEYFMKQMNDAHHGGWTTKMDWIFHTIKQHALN
# T2 sequence (P27986 whole entry partner): as the sequence (P27986 whole entry partner) above
Compound,IC50 (PI3K δ) [µM],IC50 (PI3K γ) [µM],IC50 (PI3K β) [µM],IC50 (PI3K α) [µM]
Cc1cccc2cc(Cn3nc(-c4ccc(O)c(F)c4)c4c(N)ncnc43)n(-c3ccccc3F)c(=O)c12 [Compound 29],< 1,< 0.1,> 10,> 10
Cc1cccc2cc([C@H](C)Nc3nc(N)ncc3F)n(C3CC3)c(=O)c12 [Compound 281],< 10,> 10,< 10,> 10
COc1cc(-c2nn(Cc3cc4cccc(C)c4c(=O)n3-c3ccccc3F)c3ncnc(N)c23)ccc1Cl [Compound 22],< 10,< 1,> 10,> 10
CC(=O)Nc1nc2ccc(-c3nn(Cc4cc5cccc(C)c5c(=O)n4-c4ccccc4)c4ncnc(N)c34)cc2o1 [Compound 269],< 1,< 1,< 10,< 10
Cc1ccccc1-n1c(Cn2nc(-c3cccc(Cl)c3)c3c(N)ncnc32)cc2cccc(C)c2c1=O [Compound 39],< 10,< 1,> 10,> 10
Cc1cccc2cc([C@H](C)Nc3cc(N)nc(N)n3)n(C3CC3)c(=O)c12 [Compound 284],< 10,< 10,> 10,> 10
Cc1ccccc1-n1c(Cn2nc(-c3cnn(C)c3)c3c(N)ncnc32)cc2cccc(C)c2c1=O [Compound 165],< 10,< 1,> 10,> 10
CCc1ccccc1-n1c(Cn2nc(C#C[C@@H](C)O)c3c(N)ncnc32)cc2cccc(C)c2c1=O [Compound 99],< 0.1,< 1,< 10,> 10
CC(Nc1ncnc2[nH]cnc12)c1cc2ccccc2c(=O)n1-c1ccccc1 (centres unmarked) [Compound 220],< 0.1,< 1,< 10,> 10
Cc1cccc2cc(Cn3nc(I)c4c(N)ncnc43)n(C3CCCC3)c(=O)c12 [Compound 57],< 1,< 10,> 10,> 10
Cc1cccnc1-n1c(Cn2nc(-c3ccc(Cl)c(O)c3)c3c(N)ncnc32)cc2cccc(C)c2c1=O [Compound 72],< 0.1,< 0.1,< 10,> 10
Cc1cccc2cc([C@H](C)Nc3ncnc4[nH]c(Cl)nc34)n(C3CC3)c(=O)c12 [Compound 280],> 10,> 10,> 10,> 10
Cc1cccc2cc([C@H](C)Nc3ncnc4[nH]c(Cl)nc34)n(-c3ccccc3)c(=O)c12 [Compound 261],> 10,< 10,> 10,> 10
COc1cc(F)cc(-c2nn(Cc3cc4cccc(C)c4c(=O)n3-c3ccccc3C)c3ncnc(N)c23)c1 [Compound 181],< 1,< 10,> 10,> 10
CCC(Nc1ncnc2[nH]cnc12)c1cc2cccc(C)c2c(=O)n1-c1ccccc1 (centres unmarked) [Compound 211],< 0.1,< 0.1,< 10,> 10
Cc1ccccc1-n1c(Cn2nc(-c3ccc4nc(N)ccc4c3)c3c(N)ncnc32)cc2cccc(C)c2c1=O [Compound 149],< 0.1,< 0.1,< 10,< 1
Cc1cccc2cc([C@H](C)Nc3ncnc4[nH]cc(C#N)c34)n(C3CC3)c(=O)c12 [Compound 289],< 0.1,< 0.1,< 0.1,< 1

# The next lines start with the values.
IC50 (PI3K δ) [µM],IC50 (PI3K γ) [µM],IC50 (PI3K β) [µM],IC50 (PI3K α) [µM],Compound
< 0.1,< 0.1,< 0.1,< 10,Cc1cccc2cc([C@H](C)Nc3ncnc4[nH]cc(F)c34)n(-c3ccccc3)c(=O)c12 [Compound 254]
< 0.1,< 1,> 10,> 10,Cc1cccc2cc(Cn3nc(-c4cn[nH]c4)c4c(N)ncnc43)n(-c3cccc(F)c3)c(=O)c12 [Compound 166]
< 0.1,< 1,> 10,> 10,Cc1cccc2cc(Cn3nc(I)c4c(N)ncnc43)n(-c3ccccc3OCCN3CCOCC3)c(=O)c12 [Compound 103]
< 0.1,< 1,> 10,> 10,Cc1cccc2cc(Cn3nc(C#CCO)c4c(N)ncnc43)n(-c3ccccc3F)c(=O)c12 [Compound 8]
< 0.1,< 1,< 10,> 10,C=C(C)c1nn(Cc2cc3cccc(C)c3c(=O)n2-c2ccccc2)c2ncnc(N)c12 [Compound 316]
< 0.1,< 1,> 10,> 10,Cc1cccc2cc(Cn3nc(C#C[C@@H](C)O)c4c(N)ncnc43)n(-c3ccccc3F)c(=O)c12 [Compound 28]
< 0.1,< 1,> 10,> 10,Cc1cccc2cc(C(C)Nc3ncnc4[nH]cnc34)n(-c3cc(F)cc(F)c3)c(=O)c12 (centres unmarked) [Compound 222]
< 0.1,< 0.1,> 10,> 10,Cc1cccc2cc(Cn3nc(-c4cccc(O)c4)c4c(N)ncnc43)n(-c3ccccc3)c(=O)c12 [Compound 146]
< 0.1,< 0.1,< 0.1,< 0.1,Nc1ncnc2c1c(-c1cc(O)cc(F)c1)nn2Cc1cc2cccc(Cl)c2c(=O)n1C1CC1 [Compound 142]
< 0.1,< 1,> 10,> 10,Cc1cccc2cc([C@H](C)Nc3nc(N)ncc3F)n(-c3ccccc3)c(=O)c12 [Compound 271]
< 0.1,< 0.1,< 10,< 10,Cc1cccc2cc(C(C)Nc3ncnc4[nH]cnc34)n(-c3ccccc3)c(=O)c12 (centres unmarked) [Compound 210]
< 0.1,< 0.1,< 10,> 10,Cc1ccccc1-n1c(Cn2nc(-c3ccc(O)c(Cl)c3)c3c(N)ncnc32)cc2cccc(C)c2c1=O [Compound 25]
< 0.1,< 10,> 10,> 10,Cc1cccc2cc(Cn3nc(I)c4c(N)ncnc43)n(C3CCC3)c(=O)c12 [Compound 105]
< 0.1,< 0.1,< 1,< 1,Cc1ccccc1-n1c(Cn2nc(-c3ccc4sc(N)nc4c3)c3c(N)ncnc32)cc2cccc(C)c2c1=O [Compound 276]
< 0.1,< 0.1,< 10,< 10,Cc1cccc2cc(Cn3nc(/C=C4/SC(=O)NC4=O)c4c(N)ncnc43)n(-c3ccccc3F)c(=O)c12 [Compound 171]
< 0.1,< 0.1,< 10,< 10,Cc1cccnc1-n1c(Cn2nc(-c3ccc4oc(N)nc4c3)c3c(N)ncnc32)cc2cccc(C)c2c1=O [Compound 240]
< 0.1,< 0.1,< 10,< 10,CCC(Nc1ncnc2[nH]cnc12)c1cc2cccc(C)c2c(=O)n1-c1ccc(F)cc1 (centres unmarked) [Compound 223]
< 0.1,> 10,> 10,> 10,Cc1cccc2cc(Cn3nc(I)c4c(N)ncnc43)n(C(C)C)c(=O)c12 [Compound 60]

# — patent US20140120083A1, “TREATMENT OF CANCERS USING PI3 KINASE ISOFORM MODULATORS” (INFINITY PHARMACEUTICALS, INC., priority 2012, published 2014)
